The values below come from patent publication US12398120B2, “Substituted hydantoinamides as ADAMTS7 antagonists” (BAYER AKTIENGESELLSCHAFT, priority 2019, dated 2025).

In general, IC50 refers to the concentration that gives 50% inhibition. High values mean weaker potency, low ones greater potency.

The target of the experiment is ADAMTS4 (Homo sapiens (Human), UniProt O75173). Put plainly: Selectivity assay for ADAMTS-7 modulators: ADAMTS4 (FRET substrate). The format is biochemical. Particulars: ADAMTS4 (R&D 4307-AD) 50 nM, 120 min, 32° C. The procedure: 1 μl test compound solution (dissolved in DMSO, at the corresponding concentration) or pure DMSO as a control was added per well. The enzymatic reaction was initiated by addition of 25 μl of the respective concentration of the respective FRET substrate (see table 2 below) in reaction buffer.
The increase of fluorescence intensity was measured in appropriate fluorescence plate reader (e.g. TECAN Ultra) using the respective wavelengths for excitation and emission. IC50 values were calculated from percentage of inhibition of enzyme activity as a function of test compound concentration.

Setting [1] is: substrate Dabcyl-EEVKAKVQPY-Glu(Edans)-NH2 1 μM.

Structures are written as SMILES.

Chain of ADAMTS4 (O75173 213-685): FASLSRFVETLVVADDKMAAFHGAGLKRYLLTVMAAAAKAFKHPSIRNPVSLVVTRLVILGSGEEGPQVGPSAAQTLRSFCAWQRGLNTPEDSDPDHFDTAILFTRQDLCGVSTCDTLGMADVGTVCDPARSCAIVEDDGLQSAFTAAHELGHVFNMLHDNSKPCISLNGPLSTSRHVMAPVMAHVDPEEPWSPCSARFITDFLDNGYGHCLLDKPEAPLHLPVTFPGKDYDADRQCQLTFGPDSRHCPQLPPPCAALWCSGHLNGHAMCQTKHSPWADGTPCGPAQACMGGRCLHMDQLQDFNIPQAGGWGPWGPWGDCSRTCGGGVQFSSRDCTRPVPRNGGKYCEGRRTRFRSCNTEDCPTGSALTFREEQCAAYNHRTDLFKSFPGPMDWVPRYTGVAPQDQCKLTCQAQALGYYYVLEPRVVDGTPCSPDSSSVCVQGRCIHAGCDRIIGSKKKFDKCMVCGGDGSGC

In the case of `CC(C)C1(CNC(=O)c2ccc(F)cc2-c2ccc(C(F)(F)F)cc2)NC(=O)NC1=O` (racemic) [Example 206, Rac-5-Fluoro-N-[(4-Isopropyl-2,5-Dioxoimidazolidin-4-Yl)Methyl]-4′-(Trifluoromethyl)[Biphenyl]-2-Carboxamide], the IC50 under setting [1] is greater than 50 µM.

`O=C1NC(=O)[C@](CNC(=O)c2ccc(F)cc2-c2ccc(C3CC3(F)F)cc2)(C2CC2)N1` (stereo partly drawn) [Example 142, N-{[(4R)-4-Cyclopropyl-2,5-Dioxoimidazolidin-4-Yl]Methyl}-4′-(2,2-Difluorocyclopropyl)-5-Fluoro[1,1′-Biphenyl]-2-Carboxamide] gave an IC50 under setting [1] of 18 µM.

As to `Cn1nccc1C1(CNC(=O)c2ccccc2-c2ccc(Cl)c(Cl)c2)NC(=O)NC1=O` (single isomer, unassigned; ent-3) [Example 311, Ent-3′,4′-Dichloro-N-{[4-(1-Methyl-1H-Pyrazol-5-Yl)-2,5-Dioxoimidazolidin-4-Yl]Methyl}[Biphenyl]-2-Carboxamide], half-maximal inhibition under setting [1] (IC50) was put at 11 µM. This IC50 is about 1.6-fold lower than that of the compound before.

With `Cc1ncsc1C1(CNC(=O)c2ccc(F)cc2-c2ccc(C(F)(F)F)cc2)NC(=O)NC1=O` (single isomer, unassigned; ent-5) [Example 10, Ent-5-Fluoro-N-{[4-(4-Methyl-1,3-Thiazol-5-Yl)-2,5-Dioxoimidazolidin-4-Yl]Methyl}-4′-(Trifluoromethyl)[Biphenyl]-2-Carboxamide], under setting [1], it took 8.9 µM to reach half-maximal inhibition (IC50).

As to `Cc1c(C2(CNC(=O)c3ccc(Cl)cc3-c3ccc(C(F)(F)F)cc3)NC(=O)NC2=O)cnn1C` (single isomer, unassigned; ent-5) [Example 79, Ent-5-Chloro-N-{[4-(1,5-Dimethyl-1H-Pyrazol-4-Yl)-2,5-Dioxoimidazolidin-4-Yl]Methyl}-4′-(Trifluoromethyl)[Biphenyl]-2-Carboxamide], the IC50 under setting [1] is 2.1 µM.

Under setting [1], `Cc1ccc(C(=O)NCC2(c3nccn3C)NC(=O)NC2=O)c(-c2ccc(C(F)(F)F)cc2)c1C` (single isomer, unassigned; ent-5) [Example 287, Ent-5,6-Dimethyl-N-{[4-(1-Methyl-1H-Imidazol-2-Yl)-2,5-Dioxoimidazolidin-4-Yl]Methyl}-4′-(Trifluoromethyl)[Biphenyl]-2-Carboxamide] displayed a 50% inhibitory concentration (IC50) of 0.16 µM.

With `O=C1NC(=O)C(CNC(=O)c2ccc(F)cc2-c2ccc(Cl)cc2)(C2CC(F)(F)C2)N1` (racemic) [Example 245, Rac-4′-Chloro-N-{[4-(3,3-Difluorocyclobutyl)-2,5-Dioxoimidazoidin-4-Yl]Methyl}-5-Fluoro[Biphenyl]-2-Carboxamide], the IC50 under setting [1] is greater than 50 µM.

Under setting [1], `CC1(CNC(=O)c2ccccc2-c2ccc(C(F)(F)F)cc2)NC(=O)NC1=O` (racemic) [Example 95, Rac-N-[(4-Methyl-2,5-Dioxoimidazolidin-4-Yl)Methyl]-4′-(Trifluoromethyl)[Biphenyl]-2-Carboxamide] showed a half-inhibitory concentration (IC50) greater than 50 µM.

With `Cn1ccnc1C1(CNC(=O)c2cccc(F)c2-c2ccc(C(F)(F)F)cc2)NC(=O)NC1=O` (single isomer, unassigned; ent-6) [Example 163, Ent-6-Fluoro-N-{[4-(1-Methyl-1H-Imidazol-2-Yl)-2,5-Dioxoimidazolidin-4-Yl]Methyl}-4′-(Trifluoromethyl)[Biphenyl]-2-Carboxamide], the IC50 under setting [1] worked out at 1.3 µM.

For `CCn1nccc1C1(CNC(=O)c2ccccc2-c2ccc(C(F)(F)F)cc2)NC(=O)NC1=O` (stereo not drawn) [Example 80, Ent-N-{[4-(1-Ethyl-1H-Pyrazol-5-Yl)-2,5-Dioxoimidazolidin-4-Yl]Methyl}-4′-(Trifluoromethyl)[Biphenyl]-2-Carboxamide], the IC50 under setting [1] stood at 5.73 µM. This IC50 is about 4.4-fold higher than that of the compound before.

`O=C1NC(=O)C(CNC(=O)c2ccccc2-c2ccc(C(F)(F)F)cc2)(c2ccnn2C2CC2)N1` (stereo not drawn) [Example 46, Ent-N-{[4-(1-Cyclopropyl-1H-Pyrazol-5-Yl)-2,5-Dioxoimidazolidin-4-Yl]Methyl}-4′-(Trifluoromethyl)[Biphenyl]-2-Carboxamide] displayed an IC50 under setting [1] of 4.8 µM. This IC50 and that of the compound before are within 1.5-fold of each other.

With `CC(C)(C)c1ccc(-c2cc(F)ccc2C(=O)NC[C@@]2(C3CC3)NC(=O)NC2=O)cc1` [Example 124, 4′-Tert-Butyl-N-{[(4R)-4-Cyclopropyl-2,5-Dioxoimidazolidin-4-Yl]Methyl}-5-Fluoro[Biphenyl]-2-Carboxamide], the IC50 under setting [1] was 42 µM. This IC50 is about 8.8-fold higher than that of the compound before.

The compound `CC(C)C1(CNC(=O)c2ccccc2-c2ccc(C(F)(F)F)cc2)NC(=O)NC1=O` (stereo not drawn) [Example 209, Ent-N-[(4-Isopropyl-2,5-Dioxoimidazolidin-4-Yl)Methyl]-4′-(Trifluoromethyl)[Biphenyl]-2-Carboxamide] had an IC50 under setting [1] of 36.5 µM.

Under setting [1], `Cc1ccc(-c2ccccc2C(=O)NCC2(c3nccs3)NC(=O)NC2=O)cc1` (racemic) [Example 200, Rac-N-{[2,5-Dioxo-4-(1,3-Thiazol-2-Yl)Imidazolidin-4-Yl]Methyl}-4′-Methyl[Biphenyl]-2-Carboxamide] came in with an IC50 of 28 µM.

Under setting [1], `Cn1nccc1C1(CNC(=O)c2cc(F)ccc2-c2ccc(C(F)(F)F)cc2)NC(=O)NC1=O` (racemic) [Example 177, Rac-4-Fluoro-N-{[4-(1-Methyl-1H-Pyrazol-5-Yl)-2,5-Dioxoimidazolidin-4-Yl]Methyl}-4′-(Trifluoromethyl)[Biphenyl]-2-Carboxamide] yielded an IC50 of 12 µM. Compared with the last compound, the IC50 is about 2.3-fold lower.

For `Cn1ccnc1C1(CNC(=O)c2ccc(Cl)cc2-c2ccc(C(F)(F)F)cc2)NC(=O)NC1=O` (single isomer, unassigned; ent-5) [Example 161, Ent-5-Chloro-N-{[4-(1-Methyl-1H-Imidazol-2-Yl)-2,5-Dioxoimidazolidin-4-Yl]Methyl}-4′-(Trifluoromethyl)[Biphenyl]-2-Carboxamide], the IC50 under setting [1] is 0.728 µM.

For `Cc1cn(C)nc1C1(CNC(=O)c2ccccc2-c2ccc(C(F)(F)F)nc2)NC(=O)NC1=O` (racemic) [Example 35, Rac-N-{[4-(1,4-Dimethyl-1H-Pyrazol-3-Yl)-2,5-Dioxoimidazolidin-4-Yl]Methyl}-2-[6-(Trifluoromethyl)Pyridin-3-Yl]Benzamide], the IC50 under setting [1] stood at 10 µM.

Under setting [1], `Cc1nsnc1C1(CNC(=O)c2ccccc2-c2ccc(C(F)(F)F)nc2)NC(=O)NC1=O` (racemic) [Example 53, Rac-N-{[4-(4-Methyl-1,2,5-Thiadiazol-3-Yl)-2,5-Dioxoimidazolidin-4-Yl]Methyl}-2-[6-(Trifluoromethyl)Pyridin-3-Yl]Benzamide] registered an IC50 of 41 µM.

Under setting [1], `Cc1ccc(C(=O)NCC2(c3nccn3C)NC(=O)NC2=O)c(-c2ccc(C(F)(F)F)cc2)c1` (single isomer, unassigned; ent-5) [Example 151, Ent-5-Methyl-N-{[4-(1-Methyl-1H-Imidazol-2-Yl)-2,5-Dioxoimidazolidin-4-Yl]Methyl}-4′-(Trifluoromethyl)[Biphenyl]-2-Carboxamide] registered an IC50 of 1.02 µM.

On to `O=C1NC(=O)[C@](CNC(=O)c2cc(F)ccc2-c2ccc(Cl)c(Cl)c2)(C2CC2)N1` [Example 234, 3′,4′-Dichloro-N-{[(4R)-4-Cyclopropyl-2,5-Dioxoimidazolidin-4-Yl]Methyl}-4-Fluoro[1,1′-Biphenyl]-2-Carboxamide], for which the IC50 under setting [1] is 16 µM.

`Cc1ccc(C(=O)NC[C@@]2(C3CC3)NC(=O)NC2=O)c(-c2ccc(C3CC3(F)F)cc2)c1` (single isomer, unassigned) [Example 137] showed an IC50 under setting [1] of 13 µM.

`O=C1NC(=O)[C@](CNC(=O)c2ccccc2-c2ccc(C3CCC3)cc2)(C2CC2)N1` [Example 112, 4′-Cyclobutyl-N-{[(4R)-4-Cyclopropyl-2,5-Dioxoimidazolidin-4-Yl]Methyl}[Biphenyl]-2-Carboxamide] gave an IC50 under setting [1] of 2.2 µM.

Compound `O=C1NC(=O)C(CNC(=O)c2ccc(F)cc2-c2ccc(Cl)cc2)(C2(F)CC2)N1` (single isomer, unassigned; ent-4) [Example 301, Ent-4′-Chloro-5-Fluoro-N-{[4-(1-Fluorocyclopropyl)-2,5-Dioxoimidazolidin-4-Yl]Methyl}[Biphenyl]-2-Carboxamide] came in with an IC50 (substrate Dabcyl-[…]-Glu(Edans)-NH2 1 μM) of 15 µM.

Under setting [1], `O=C1NC(=O)[C@](CNC(=O)c2ccc(F)cc2-c2ccc(C(F)(F)F)nc2)(C2CC2)N1` [Example 290, N-{[(4R)-4-Cyclopropyl-2,5-Dioxoimidazolidin-4-Yl]Methyl}-4-Fluoro-2-[6-(Trifluoromethyl)Pyridin-3-Yl]Benzamide] came in with a concentration for half-maximal inhibition (IC50) of 21 µM. This counts as double-digit micromolar.

Under setting [1], `Cc1cnoc1C1(CNC(=O)c2ccccc2-c2ccc(C(F)(F)F)nc2)NC(=O)NC1=O` (racemic) [Example 77, Rac-N-{[4-(4-Methyl-1,2-Oxazol-5-Yl)-2,5-Dioxoimidazolidin-4-Yl]Methyl}-2-[6-(Trifluoromethyl)Pyridin-3-Yl]Benzamide] yielded an IC50 of 40 µM. This IC50 is about 1.9-fold higher than that of the compound before.

With `O=C1NC(=O)C(CNC(=O)c2ccccc2-c2ccc(Cl)cc2)(c2ncccc2C(F)(F)F)N1` (racemic) [Example 242, Rac-4′-Chloro-N-({2,5-Dioxo-4-[3-(Trifluoromethyl)Pyridin-2-Yl]Imidazolidin-4-Yl}Methyl)[Biphenyl]-2-Carboxamide], 29 µM corresponded to half-maximal inhibition under setting [1] (IC50).

`Cc1c(C2(CNC(=O)c3ccccc3-c3ccc(C(F)(F)F)cc3)NC(=O)NC2=O)cnn1C` (racemic) [Example 14, Rac-N-{[4-(1,5-Dimethyl-1H-Pyrazol-4-Yl)-2,5-Dioxoimidazolidin-4-Yl]Methyl}-4′-(Trifluoromethyl)[Biphenyl]-2-Carboxamide]: under setting [1], the midpoint of inhibition, the IC50, lay at 17 µM.

Under setting [1], `O=C1NC(=O)C(CNC(=O)c2ccccc2-c2ccc(C(F)(F)F)cc2)(c2ncccc2C(F)(F)F)N1` (stereo not drawn) [Example 244, Ent-N-({2,5-Dioxo-4-[3-(Trifluoromethyl)Pyridin-2-Yl]Imidazolidin-4-Yl}Methyl)-4′-(Trifluoromethyl)[Biphenyl]-2-Carboxamide] registered an IC50 of 10 µM.
